The values below come from US20090105305A1, “Therapeutic Agents - 550” (AstraZeneca AB, priority 2006, published 2009).

The structures appear in SMILES notation.

T1 sequence (P49327 whole entry): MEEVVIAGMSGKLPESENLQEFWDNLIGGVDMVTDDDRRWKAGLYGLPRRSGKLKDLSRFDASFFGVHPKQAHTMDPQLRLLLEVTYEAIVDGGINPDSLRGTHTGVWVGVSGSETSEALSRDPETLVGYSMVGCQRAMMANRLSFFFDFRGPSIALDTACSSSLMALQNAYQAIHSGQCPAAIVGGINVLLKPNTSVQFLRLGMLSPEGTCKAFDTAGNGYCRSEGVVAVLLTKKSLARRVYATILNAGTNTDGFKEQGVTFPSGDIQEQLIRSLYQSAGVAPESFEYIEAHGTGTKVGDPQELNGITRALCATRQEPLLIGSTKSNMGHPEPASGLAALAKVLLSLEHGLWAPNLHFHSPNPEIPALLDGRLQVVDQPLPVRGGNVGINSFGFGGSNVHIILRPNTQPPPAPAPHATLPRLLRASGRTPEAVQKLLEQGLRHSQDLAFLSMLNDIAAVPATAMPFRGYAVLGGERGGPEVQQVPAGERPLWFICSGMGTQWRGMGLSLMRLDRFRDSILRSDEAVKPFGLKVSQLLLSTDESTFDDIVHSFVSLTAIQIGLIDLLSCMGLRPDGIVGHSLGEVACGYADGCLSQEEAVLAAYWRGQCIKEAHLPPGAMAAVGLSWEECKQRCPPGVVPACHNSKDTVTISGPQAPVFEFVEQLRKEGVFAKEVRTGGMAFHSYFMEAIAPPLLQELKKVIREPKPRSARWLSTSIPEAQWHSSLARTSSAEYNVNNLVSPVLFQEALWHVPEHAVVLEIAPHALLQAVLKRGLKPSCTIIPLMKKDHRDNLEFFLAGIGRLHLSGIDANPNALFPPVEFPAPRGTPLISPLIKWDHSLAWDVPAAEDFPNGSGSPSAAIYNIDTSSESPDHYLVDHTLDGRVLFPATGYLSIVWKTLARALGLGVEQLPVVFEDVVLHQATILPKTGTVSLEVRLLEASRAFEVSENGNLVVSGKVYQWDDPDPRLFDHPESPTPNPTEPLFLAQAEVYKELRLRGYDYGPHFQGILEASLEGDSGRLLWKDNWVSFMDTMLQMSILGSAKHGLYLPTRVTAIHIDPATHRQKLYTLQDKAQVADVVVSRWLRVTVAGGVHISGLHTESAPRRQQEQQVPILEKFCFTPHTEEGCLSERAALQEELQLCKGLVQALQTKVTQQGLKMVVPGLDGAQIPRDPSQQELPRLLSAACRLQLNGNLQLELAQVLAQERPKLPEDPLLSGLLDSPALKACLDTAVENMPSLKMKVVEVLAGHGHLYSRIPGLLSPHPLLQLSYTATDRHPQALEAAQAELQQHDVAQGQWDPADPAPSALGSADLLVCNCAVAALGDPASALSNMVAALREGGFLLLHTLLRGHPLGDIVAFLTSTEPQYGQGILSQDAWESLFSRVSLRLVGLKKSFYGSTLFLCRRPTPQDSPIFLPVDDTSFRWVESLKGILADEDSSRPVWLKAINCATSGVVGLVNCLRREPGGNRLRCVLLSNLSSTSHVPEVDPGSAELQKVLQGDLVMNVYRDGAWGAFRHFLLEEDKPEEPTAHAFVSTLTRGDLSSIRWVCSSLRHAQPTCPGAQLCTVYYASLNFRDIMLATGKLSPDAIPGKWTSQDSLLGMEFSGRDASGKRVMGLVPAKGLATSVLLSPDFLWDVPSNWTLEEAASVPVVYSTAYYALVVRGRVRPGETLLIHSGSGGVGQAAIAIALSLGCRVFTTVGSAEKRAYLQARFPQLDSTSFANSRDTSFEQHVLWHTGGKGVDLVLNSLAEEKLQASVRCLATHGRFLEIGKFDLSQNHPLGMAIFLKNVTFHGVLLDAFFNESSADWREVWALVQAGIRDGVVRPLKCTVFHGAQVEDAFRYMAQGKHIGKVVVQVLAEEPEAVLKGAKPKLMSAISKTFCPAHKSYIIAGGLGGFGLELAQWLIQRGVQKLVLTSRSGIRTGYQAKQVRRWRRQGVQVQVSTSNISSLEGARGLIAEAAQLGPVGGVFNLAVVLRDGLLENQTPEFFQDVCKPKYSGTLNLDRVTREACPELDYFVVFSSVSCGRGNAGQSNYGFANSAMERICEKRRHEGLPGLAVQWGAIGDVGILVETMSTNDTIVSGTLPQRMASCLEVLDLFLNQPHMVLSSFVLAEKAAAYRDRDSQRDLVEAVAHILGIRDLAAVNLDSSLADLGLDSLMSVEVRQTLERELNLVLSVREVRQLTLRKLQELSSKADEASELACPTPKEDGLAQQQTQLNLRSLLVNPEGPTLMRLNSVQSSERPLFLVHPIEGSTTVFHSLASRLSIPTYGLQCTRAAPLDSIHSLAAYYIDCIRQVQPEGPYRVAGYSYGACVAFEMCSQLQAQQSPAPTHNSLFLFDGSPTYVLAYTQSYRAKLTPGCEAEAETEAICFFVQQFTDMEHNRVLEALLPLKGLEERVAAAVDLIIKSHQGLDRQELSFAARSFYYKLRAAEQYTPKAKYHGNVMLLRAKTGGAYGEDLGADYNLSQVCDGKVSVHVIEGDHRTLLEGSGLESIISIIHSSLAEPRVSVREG

The first experiment addresses T1, human Fatty Acid Synthase (Homo sapiens, UniProt P49327).
T1 construct: made in house
Put plainly: Human FAS enzyme assay (decrease in NADPH fluorescence). It counts as biochemical. As to conditions: % inhibition at a concentration of 100 micromolar. The method, boiled down:
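In-house human FAS (0.4 μg) was preincubated 15 min at RT with compound and NADPH (added at 166.6 μM) in 0.1 M Tris pH 7.5, 1 mM glutathione, 0.05% BSA. Malonyl-/acetyl-CoA (500/150 μM in substrate mix) was then added for 60 min. Readout was NADPH fluorescence loss (ex 340/em 460) over a time-zero read, with IC50 from a sigmoid fit.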
The molecule `Cc1ccc(C(=O)N2CCC(c3ccc(C(=O)N(C)C)cc3)CC2)cc1NS(=O)(=O)Cc1ccccc1` [Example 204, 4-[1-[3-(benzylsulfonylamino)-4-methylbenzoyl]piperidin-4-yl]-N,N-dimethylbenzamide] registered an inhibition at 100 µM of 78%. Still for that read-out and setting: under `CC(=O)N1CCC(S(=O)(=O)Nc2cc(C(=O)N3CCC(c4ccc(C#N)cc4)CC3)ccc2C)C1` (stereo not drawn) [Example 153, 1-acetyl-N-[5-[4-(4-cyanophenyl)piperidine-1-carbonyl]-2-methyl-phenyl]pyrrolidine-3-sulfonamide] stands 97%; under `Cc1ccc(NS(=O)(=O)CC2CCCCC2)cc1C(=O)N1CCC(c2ccc(C#N)cc2)CC1` [Example 41, N-[3-[4-(4-cyanophenyl)piperidine-1-carbonyl]-4-methyl-phenyl]-1-cyclohexyl-methanesulfonamide], 96%; under `CNC(=O)c1cccc(S(=O)(=O)Nc2cc(C(=O)N3CCC(c4ccc(C#N)cc4)CC3)ccc2C)c1` [Example 83, 3-[[5-[4-(4-cyanophenyl)piperidine-1-carbonyl]-2-methyl-phenyl]sulfamoyl]-N-methyl-benzamide], 98%.

As for `Cc1ccc(C(=O)N2CCC(c3ccc(C#N)cc3)CC2)cc1NS(=O)(=O)c1cnn(C)c1` [Example 145, N-[5-[4-(4-cyanophenyl)piperidine-1-carbonyl]-2-methyl-phenyl]-1-methyl-pyrazole-4-sulfonamide], the inhibition at 100 µM turned out to be 97%. The molecule `Cc1ccc(NS(=O)(=O)c2ccccc2C#N)cc1C(=O)N1CCC(c2ccc(C#N)cc2)CC1` [Example 46, 2-cyano-N-[3-[4-(4-cyanophenyl)piperidine-1-carbonyl]-4-methyl-phenyl]benzenesulfonamide] had an inhibition at 100 µM of 79%. The same measure, in the same setting: the result for `CCNC(=O)NCc1ccc(C2CCN(C(=O)c3ccc(C)c(NS(C)(=O)=O)c3)CC2)cc1` [Example 234, 1-ethyl-3-[[4-[1-(3-methanesulfonamido-4-methylbenzoyl)piperidin-4-yl]phenyl]methyl]urea] reads 78.3%; that for `COc1ccc(NS(C)(=O)=O)cc1C(=O)N1CCC(c2ccc(C#N)cc2)CC1` [Example 197, N-[3-[4-(4-cyanophenyl)piperidine-1-carbonyl]-4-methoxyphenyl]methanesulfonamide], 71%. Same read-out and setting: under `CSCc1ccc(C(=O)N2CCC(c3ccc(C#N)cc3)CC2)cc1NS(C)(=O)=O` [Example 176, N-[5-[4-(4-cyanophenyl)piperidine-1-carbonyl]-2-(methylsulfanylmethyl)phenyl]methanesulfonamide] stands 78%; under `Cc1ccc(C(=O)N2CCC(c3ccc(C#N)cc3)CC2)cc1NS(=O)(=O)c1cccc(C(N)=O)c1` [Example 81, 3-[[5-[4-(4-cyanophenyl)piperidine-1-carbonyl]-2-methyl-phenyl]sulfamoyl]benzamide], 90%; under `Cc1ccc(C(=O)N2CCC(c3ccc(C(N)=NO)cc3)CC2)cc1NS(C)(=O)=O` [Example 214, N′-hydroxy-4-[1-(3-methanesulfonamido-4-methylbenzoyl)piperidin-4-yl]benzene-carboximidamide], 85%. The same measure, in the same setting: the result for `COC(=O)NCc1ccc(C2CCN(C(=O)c3ccc(C)c(NS(C)(=O)=O)c3)CC2)cc1` [Example 239, Methyl N-[[4-[1-(3-methanesulfonamido-4-methylbenzoyl)piperidin-4-yl]phenyl]methyl]carbamate] reads 89.1%; that for `Cc1ccc(C(=O)N2CCC(c3ccc(SC(F)(F)F)cc3)CC2)cc1NS(C)(=O)=O` [Example 232, N-[2-methyl-5-[4-[4-(trifluoromethylsulfanyl)phenyl]piperidine-1-carbonyl]phenyl]methanesulfonamide], 88.9%. For `Cc1ccc(C(=O)N2CCC(c3ccc(CN4CCOCC4)cc3)CC2)cc1NS(C)(=O)=O` [Example 243, N-[2-methyl-5-[4-[4-(morpholin-4-ylmethyl)phenyl]piperidine-1-carbonyl]phenyl]methanesulfonamide], the inhibition at 100 µM came out at 69.9%. Molecule `Cc1ccc(C(=O)N2CCC(c3ccc(C#N)cc3)CC2)cc1NS(=O)(=O)CCCNC(=O)c1ccccc1` [Example 133, N-[3-[[5-[4-(4-cyanophenyl)piperidine-1-carbonyl]-2-methyl-phenyl]sulfamoyl]propyl]benzamide] had an inhibition at 100 µM of 91%. On the same count and under the same terms, under `Cc1ccc(C(=O)N2CCC(c3ccc(OCC#N)cc3)CC2)cc1NS(C)(=O)=O` [Example 181, N-[5-[4-[4-(cyanomethoxy)phenyl]piperidine-1-carbonyl]-2-methylphenyl]methanesulfonamide] stands 100%. Still for that read-out and setting: under `Cc1ccc(C(=O)N2CCC(c3ccc(-c4nnco4)cc3)CC2)cc1NS(C)(=O)=O` [Example 168, N-[2-methyl-5-[4-[4-(1,3,4-oxadiazol-2-yl)phenyl]piperidine-1-carbonyl]phenyl]methanesulfonamide] stands 75%. `CC(=O)NCc1ccc(C2CCN(C(=O)c3ccc(C)c(NS(C)(=O)=O)c3)CC2)cc1` [Example 164, N-[[4-[1-(3-methanesulfonamido-4-methylbenzoyl)piperidin-4-yl]phenyl]methyl]acetamide] yielded an inhibition at 100 µM of 83%.

In turn, `Cc1ccc(C(=O)N2CCC(c3ccc(C(=O)N4CCOCC4)cc3)CC2)cc1NS(C)(=O)=O` [Example 231, N-[2-methyl-5-[4-[4-(morpholine-4-carbonyl)phenyl]piperidine-1-carbonyl]phenyl]methanesulfonamide] displayed an inhibition at 100 µM of 86.1%. Same read-out and setting: under `Cc1ccc(C(=O)N2CCC(c3ccc(C#N)cc3)CC2)cc1NS(=O)(=O)c1ccccc1C(N)=O` [Example 113, 2-[[5-[4-(4-cyanophenyl)piperidine-1-carbonyl]-2-methyl-phenyl]sulfamoyl]benzamide] stands 77%. On to `Cc1ccc(C(=O)N2CCC(c3ccc(CNS(C)(=O)=O)cc3)CC2)cc1NS(C)(=O)=O` [Example 163, N-[[4-[1-(3-methanesulfonamido-4-methylbenzoyl)piperidin-4-yl]phenyl]methyl]methanesulfonamide], for which the inhibition at 100 µM stood at 85%.

The molecule `Cc1ccc(C(=O)N2CCC(c3ccc(CCCC(=O)O)cc3)CC2)cc1NS(=O)(=O)C1CCCCC1` [Example 246, 4-[4-[[13-(cyclohexylsulfonylamino)-4-methylbenzoyl]piperidin-4-yl]phenyl]butanoic acid] yielded an Inhib % of 92.8%. For `Cc1ccc(C(=O)N2CCC(c3ccc(C#N)cc3)CC2)cc1NS(=O)(=O)CC(C)C` [Example 64, N-[5-[4-(4-cyanophenyl)piperidine-1-carbonyl]-2-methyl-phenyl]-2-methyl-propane-1-sulfonamide], at 100 µM the inhibition was 83%. On the same count and under the same terms, the result for `Cc1ccc(C(=O)N2CCC(c3ccc(C#N)cc3)CC2)cc1NS(=O)(=O)CCc1ccccc1` [Example 202, N-[5-[4-(4-cyanophenyl)piperidine-1-carbonyl]-2-methylphenyl]-2-phenylethanesulfonamide] reads 90%.

Staying with this experiment, now noted: compounds excluded from the claims by proviso.
In the case of `Cc1ccc(C(=O)N2CCC(c3ccc(S(=O)(=O)N4CCCC4)cc3)CC2)cc1NS(C)(=O)=O` [N-[2-methyl-5-[4-(4-pyrrolidin-1-ylsulfonylphenyl)piperidine-1-carbonyl]phenyl]methanesulfonamide], the “IC50s in the range of about 0.001 μM to about 30 μM” value (“IC50s in the range” below) is reported as “do not have IC50s in the range of about 0.001 μM to about 30 μM”. On the same count and under the same terms, under `COC(=O)c1ccc(C2CCN(C(=O)c3ccc(C)c(NS(C)(=O)=O)c3)CC2)cc1` [Methyl 4-[1-(3-methanesulfonamido-4-methylbenzoyl)piperidin-4-yl]benzoate] stands “do not have IC50s in the range of about 0.001 μM to about 30 μM”; under `Cc1ccc(C(=O)N2CCC(O)(c3ccccc3)CC2)cc1NS(C)(=O)=O` [N-[5-(4-hydroxy-4-phenylpiperidine-1-carbonyl)-2-methylphenyl]methanesulfonamide], “do not have IC50s in the range of about 0.001 μM to about 30 μM”.

With `Cc1ccc(C(=O)N2CCC(c3ccc(CC(N)=O)cc3)CC2)cc1NS(C)(=O)=O` [2-[4-[1-(3-methanesulfonamido-4-methylbenzoyl)piperidin-4-yl]phenyl]acetamide], the “IC50s in the range” value is listed as “do not have IC50s in the range of about 0.001 μM to about 30 μM”.

For `Cc1ccc(C(=O)N2CCC(O)(c3ccc(Cl)cc3)CC2)cc1NS(C)(=O)=O` [N-[5-[4-(4-chlorophenyl)-4-hydroxypiperidine-1-carbonyl]-2-methylphenyl]methanesulfonamide], the “IC50s in the range” value is listed as “do not have IC50s in the range of about 0.001 μM to about 30 μM”.

As to `Cc1ccc(C(=O)N2CCC(c3cccc(C#N)c3)CC2)cc1NS(C)(=O)=O` [N-[5-[4-(3-cyanophenyl)piperidine-1-carbonyl]-2-methylphenyl]methanesulfonamide], the “IC50s in the range” value was “do not have IC50s in the range of about 0.001 μM to about 30 μM”. Same read-out and setting: the result for `Cc1ccc(C(=O)N2CCC(c3ccc(S(=O)(=O)N(C)C)cc3)CC2)cc1NS(C)(=O)=O` [4-[1-(3-methanesulfonamido-4-methylbenzoyl)piperidin-4-yl]-N,N-dimethylbenzenesulfonamide] reads “do not have IC50s in the range of about 0.001 μM to about 30 μM”.

With `Cc1ccc(C(=O)N2CCC(c3ccccc3)CC2)cc1NS(C)(=O)=O` [N-[2-methyl-5-(4-phenylpiperidine-1-carbonyl)phenyl]methanesulfonamide], the “IC50s in the range” value is given as “do not have IC50s in the range of about 0.001 μM to about 30 μM”.

Staying with this experiment, now noted: unit inferred.
`Cc1ccc(C(=O)N2CCC(c3ccc(C#CCCCO)cc3)CC2)cc1NS(C)(=O)=O` [Example 250, N-[5-[4-[4-(5-hydroxypent-1-ynyl)phenyl]piperidine-1-carbonyl]-2-methylphenyl]methanesulfonamide] registered an IC50 of 1.44 µM.

The inhibition is the change of the read-out against control, counted positive when it falls. High values mean strong suppression, low ones little suppression. One may read the IC50 as the concentration needed to halve the response being measured.
